Source: PubChem BioAssay (NCI)
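48-hour exposure; five concentrations; linearly interpolated endpoints. TGI: concentration producing complete growth inhibition.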

Legend:
Experiment in all cases: NCI tumour cell line growth inhibition, 48 h
[1] = system: K-562 leukemia
[2] = system: U251 CNS
[3] = system: NCI-H522 lung
[4] = system: MCF7 breast
[5] = system: HL-60(TB) leukemia
[6] = system: M19-MEL melanoma
[7] = system: A549 NSCLC
[8] = system: RXF 393 renal
[9] = system: UACC-257 melanoma
[10] = system: NCI-H460 lung
[11] = system: HCT-116 colon
[12] = system: OVCAR-4 ovarian
[13] = system: SF-539 CNS
[14] = system: COLO 205 colon
[15] = system: HCT-15 colon
[16] = system: HOP-92 NSCLC
[17] = system: SNB-19 CNS
[18] = system: KM12 colon
[19] = system: SF-268 CNS
[20] = system: SK-OV-3 ovarian

## Cc1c(N=NN(C)C)cc[n+]([O-])c1C
[1]
  TGI: > 100 µM
[2]
  TGI: > 100 µM
[3]
  TGI: > 100 µM
[4]
  TGI: > 100 µM
[5]
  TGI: > 100 µM
[6]
  TGI: > 100 µM
[7]
  TGI: > 100 µM
[8]
  TGI: > 100 µM
[9]
  TGI: > 100 µM
[10]
  TGI: > 100 µM
[11]
  TGI: > 100 µM
[12]
  TGI: > 100 µM
[13]
  TGI: > 100 µM
[14]
  TGI: > 100 µM
[15]
  TGI: > 100 µM
[16]
  TGI: > 100 µM
[17]
  TGI: > 100 µM
[18]
  TGI: > 100 µM
[19]
  TGI: > 100 µM
[20]
  TGI: > 100 µM

## COC(=O)C1C(O)C(C)C(O)OC1C(C)C(O)C(C)/C=C\C=C(/C)C(=O)Nc1c(C)c(OC(C)=O)c2c(c1O)C(=O)C(C)=C1OCOC(/C(C)=C/C(C)=O)=C12 (configuration not stated)
[1]
  TGI: 51.1 µM
[2]
  TGI: 27.7 µM
[3]
  TGI: 7.74 µM
[4]
  TGI: 26.8 µM
[5]
  TGI: 15.3 µM
[6]
  TGI: 26 µM
[7]
  TGI: 35.3 µM
[8]
  TGI: 24.8 µM
[9]
  TGI: 23.7 µM
[10]
  TGI: 26.5 µM
[11]
  TGI: 19.9 µM
[12]
  TGI: 23 µM
[13]
  TGI: 23.7 µM
[14]
  TGI: 20.6 µM
[15]
  TGI: 29 µM
[16]
  TGI: 22.3 µM
[17]
  TGI: 30.9 µM
[18]
  TGI: 26.5 µM
[19]
  TGI: 33.1 µM
[20]
  TGI: 40.2 µM

## O=C1CSC(C(N=Nc2ccc(Cl)cc2)c2nc3ccccc3[nH]2)=N1 (configuration not stated)
[1]
  TGI: > 100 µM
[2]
  TGI: > 100 µM
[3]
  TGI: 71.1 µM
[5]
  TGI: > 100 µM
[6]
  TGI: > 100 µM
[7]
  TGI: > 100 µM
[9]
  TGI: > 100 µM
[10]
  TGI: > 100 µM
[11]
  TGI: > 100 µM
[12]
  TGI: > 100 µM
[13]
  TGI: 52.9 µM
[14]
  TGI: > 100 µM
[15]
  TGI: > 100 µM
[16]
  TGI: > 100 µM
[17]
  TGI: > 100 µM
[18]
  TGI: > 100 µM
[19]
  TGI: > 100 µM
[20]
  TGI: > 100 µM

## Cn1c(=O)c2nc(NCCO)cnc2n(C)c1=O
[1]
  TGI: > 100 µM
[2]
  TGI: > 100 µM
[3]
  TGI: 46.4 µM
[5]
  TGI: 76.9 µM
[6]
  TGI: > 100 µM
[7]
  TGI: > 100 µM
[8]
  TGI: 81.5 µM
[9]
  TGI: > 100 µM
[10]
  TGI: > 100 µM
[11]
  TGI: > 100 µM
[12]
  TGI: > 100 µM
[13]
  TGI: 88.7 µM
[14]
  TGI: > 100 µM
[15]
  TGI: > 100 µM
[16]
  TGI: > 100 µM
[17]
  TGI: > 100 µM
[18]
  TGI: > 100 µM
[19]
  TGI: > 100 µM
[20]
  TGI: > 100 µM

## CC(C)[C@](O)(C(=O)OCC1=CCN2CC[C@@H](O)[C@@H]12)[C@H](C)O
[1]
  TGI: > 375 µM
[2]
  TGI: > 375 µM
[3]
  TGI: > 375 µM
[4]
  TGI: > 375 µM
[5]
  TGI: > 375 µM
[6]
  TGI: > 256 µM
[7]
  TGI: > 375 µM
[8]
  TGI: > 375 µM
[9]
  TGI: > 375 µM
[10]
  TGI: > 375 µM
[11]
  TGI: > 375 µM
[12]
  TGI: > 375 µM
[13]
  TGI: > 375 µM
[14]
  TGI: > 375 µM
[15]
  TGI: > 375 µM
[16]
  TGI: > 375 µM
[17]
  TGI: > 375 µM
[18]
  TGI: > 375 µM
[19]
  TGI: > 375 µM
[20]
  TGI: > 375 µM
